Measured values taken from US20240189307A1, “METHODS OF STABILIZING THE NEURONAL PROTEOME AGAINST COLLAPSE AND PROTECTING VASCULAR CELLS” (ALBERT EINSTEIN COLLEGE OF MEDICINE, priority 2021, published 2024).

Key:
[1] = Blood cell count and histopathology of peripheral organs (liver, lung, kidney) after daily oral administration; assay type: in vivo; conditions: after 3 months of daily treatment
[2] = system: NIH3T3 cells stably expressing the KFERQ-PS-Dendra reporter; experiment: CMA activity in cells with KFERQ-PS-Dendra reporter (fluorescent puncta per cell); assay type: cell-based, mouse; conditions: increasing concentrations; 12 h, 16 h or 24 h treatment
Protocol: FIG. 10. Characterization of the brain permeable chemical activator of CMA and effect in a mouse model of Frontotemporal dementia-related proteotoxicity. (A) Chemical structure of AR7 and CA77.1. (B) Quantification of the effect of adding increasing concentrations of AR7 and CA77.1 to NIH3T3 cells stably expressing the KFERQ-PS-Dendra reporter. CMA activity was quantified after 16 h treatment as the average of fluorescent puncta per cell. (n>800 cells per condition). (C) Autophagic flux in NIH3T3 cells incubated at 37° C. for 16 h with 20 µM AR7 or CA77.1 or without additions (none). Where indicated lysosomal protease inhibitors (PI) were added to the cells 6 h before lysis. Left: representative immunoblot. […] Right: quantification of LC3-II flux as the difference in LC3-II levels in cells treated with PI relative to untreated. […] (D) Quantification of the effect of adding increasing concentrations of AR7 and CA77.1 to NIH3T3 cells stably expressing the KFERQ-PS-Dendra reporter. CMA activity was quantified after 12 h or 24 h treatment as the average of fluorescent puncta per cell. […] Representative immunoblot of 4-5 mice per genotype and treatment (L) and densitometric quantification of AT8 as monomer [Kruskal-Wallis statistic=20.48, p<0.0001] […] (O, P) Quantification of the number of Iba1-positive microglial cells per mm^2 in the hippocampus [Kruskal-Wallis statistic=10.55, p=0.0051] […]

[3] = system: KFERQ-Dendra mice; experiment: CMA activation in brain of KFERQ-Dendra mice; conditions: administered in vivo
Excerpt: To test this possibility, we measured CMA in a mouse model of tau-mediated proteotoxicity expressing mutant human tau (hTau^P301L) under the Thy 1.2 promotor (line pR5). We crossed hTau^P301L mice with a transgenic mouse model that expresses systemically a KFERQ-tagged fluorescent protein Dendra2 (KFERQ-Dendra), recently developed by our group. This reporter protein, when targeted for degradation via CMA, highlights lysosomes as fluorescent puncta, that can be counted as read out of CMA activity.

For `CC(=O)Nc1ccc(-c2cnc3cc(Cl)ccc3n2)cc1` [CA77.1], which “blood or major organs toxicity” value [1] is on record?
The value was “absence of blood or major organs toxicity”.

And the “CMA activity in vitro” value [2]?
The value was “activates CMA in vitro in dose- and time-dependent manner”.

And the “activation of CMA in brain in vivo” value [3]?
The value was “activation of CMA in brain of KFERQ-Dendra mice”.
